Results as given in patent US7442692B2, “Indanyl-piperazine compounds” (Les Laboratoires Servier, priority 2005, dated 2008).
Where a name gives a salt, the structure may show the parent alone.

How the values were obtained:
[1] = target: T1, serotonin (5-HTT) reuptake site (Rattus norvegicus, UniProt P31652); assay: Affinity for serotonin reuptake sites in the rat ([3H]-citalopram competition); format: binding; conditions: rat frontal cortex membranes, read-out: pKi r5-HTT (converted)
T1 construct: from tissue; host or cells: rat frontal cortex membranes
Method: The cortices are homogenised using a Polytron in 40 volumes (weight/volume) of cold Tris-HCl (50 mM, pH 7.4) incubation buffer containing 120 mM NaCl and 5 mM KCl and are then centrifuged for a first time. The sediment is resuspended in the same buffer, incubated for 10 minutes at 37° C. and then re-centrifuged. The membranes are washed a further two times and the sediment is then resuspended in an appropriate volume of incubation buffer. […] Non-specific binding is determined with 10 μM fluoxetine. At the end of the incubation period, the samples are filtered through Unifilter GF/B type filters pretreated with PEI (0.5%) and washed several times with the incubation buffer. The radioactivity retained on the filters is counted after addition of scintillation liquid, with the aid of a scintillation counter. […] The results are expressed as pKi=−log Ki.

[2] = target: T2, human NK1 receptors (Homo sapiens, UniProt P25103); assay: hNK1 binding ([3H]-Substance P competition on IM9 human lymphoblast cells); conditions: read-out: pKi NK1 (converted)
T2 construct: IM9 human lymphoblast cells endogenously expressing NK1 receptors; endogenous in cells; host or cells: IM9 human lymphoblast cells
Method: IM9 human lymphoblast cells endogenously expressing NK1 receptors are centrifuged and taken up in the incubation buffer containing 50 mM TRIS, 150 mM NaCl, 4 mM CaCl2, protease inhibitors at 1/100^e (Cocktail SIGMA P8340) and 0.2% BSA. The volume of incubation buffer is determined so as to obtain a concentration of 5×10^6 cells/ml. […] Non-specific binding is determined in the presence of 1 μM GR 205171.
At the end of the incubation period, the samples ate filtered through Unifilter GF/B type filters pretreated with PEI (0.1%) and washed several times with the filtration buffer ([…], 150 mM NaCl, 4 mM CaCl2). The radioactivity retained on the filters is measured by counting after addition of scintillation liquid to the filters. The counts are […] analysed by non-linear regression, allowing the isotherms to be plotted and the IC50 values to be determined. […] The results are expressed as pKi (−log Ki).

T1 sequence (P31652 whole entry): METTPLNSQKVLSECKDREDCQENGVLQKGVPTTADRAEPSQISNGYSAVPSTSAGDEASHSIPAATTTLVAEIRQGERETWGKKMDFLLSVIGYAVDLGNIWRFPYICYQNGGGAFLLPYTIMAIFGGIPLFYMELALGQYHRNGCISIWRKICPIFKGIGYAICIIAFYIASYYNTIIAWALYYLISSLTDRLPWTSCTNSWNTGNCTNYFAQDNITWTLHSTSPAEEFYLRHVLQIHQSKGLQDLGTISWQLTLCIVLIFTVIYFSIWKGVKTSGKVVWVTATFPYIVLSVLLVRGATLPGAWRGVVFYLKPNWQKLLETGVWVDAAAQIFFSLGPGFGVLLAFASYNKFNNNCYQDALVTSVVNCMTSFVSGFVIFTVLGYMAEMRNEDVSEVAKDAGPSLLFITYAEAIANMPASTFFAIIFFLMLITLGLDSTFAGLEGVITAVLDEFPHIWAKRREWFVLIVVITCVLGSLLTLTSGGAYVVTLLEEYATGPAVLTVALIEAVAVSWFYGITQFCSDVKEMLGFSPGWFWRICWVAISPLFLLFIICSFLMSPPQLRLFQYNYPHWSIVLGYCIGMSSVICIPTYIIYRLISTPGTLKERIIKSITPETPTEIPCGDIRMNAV
T2 sequence (P25103 whole entry): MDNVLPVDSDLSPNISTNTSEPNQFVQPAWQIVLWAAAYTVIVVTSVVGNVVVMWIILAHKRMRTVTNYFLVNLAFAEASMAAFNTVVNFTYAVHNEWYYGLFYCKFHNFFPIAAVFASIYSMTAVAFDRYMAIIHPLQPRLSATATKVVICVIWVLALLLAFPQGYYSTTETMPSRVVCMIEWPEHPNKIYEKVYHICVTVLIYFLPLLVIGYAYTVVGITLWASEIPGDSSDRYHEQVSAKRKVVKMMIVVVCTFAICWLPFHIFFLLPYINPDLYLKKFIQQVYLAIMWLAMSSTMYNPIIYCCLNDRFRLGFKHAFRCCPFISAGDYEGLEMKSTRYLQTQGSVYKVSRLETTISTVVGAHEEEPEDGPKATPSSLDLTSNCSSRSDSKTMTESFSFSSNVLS

| Ki [1] | Ki [2] | SMILES |
| --- | --- | --- |
| 53.7 nM | 18.2 nM | Cc1cc(C)cc(COCC2(N3CCNCC3)CCc3ccccc32)c1 (racemic) [Example 2, 1-[(1RS)-1-(3,5-Dimethylbenzyloxymethyl)indan-1-yl]piperazine dihydrochloride] |
| 43.7 nM |  | CN(Cc1cc(F)cc(Cl)c1)C(=O)C1(N2CCNCC2)Cc2ccccc2C1 [Example 135, N-(3-Chloro-5-fluorobenzyl)-N-methyl-2-(1-piperazinyl)-2-indan-carboxamide dihydrochloride] |
| 63.1 nM | 162 nM | Cc1cc(C)cc(COCC2(N3CCNCC3)Cc3ccccc3C2)c1 [Example 3, 1-[2-(3,5-Dimethylbenzyloxymethyl)indan-2-yl]piperazine dihydrochloride] |
| 93.3 nM |  | CN(Cc1cc(Cl)cc(Cl)c1)C(=O)C1(N2CCNCC2)CCc2ccccc21 (racemic) [Example 85, (1RS)-N-(3,5-Dichlorobenzyl)-N-methyl-1-(1-piperazinyl)-1-indan-carboxamide dihydrochloride] |
| 3.24 nM |  | Fc1cc(F)cc(COCC2(N3CCNCC3)CCc3ccccc32)c1 (racemic) [Example 70, (1RS)-1-[1-(3,5Difluorobenzyloxymethyl)indan-1-yl]piperazine dihydrochloride] |
| 245 nM | 3.39 nM | Brc1cc(Br)cc(COCC2(N3CCNCC3)CCc3ccccc32)c1 (racemic) [Example 1, 1-[(1RS)-1-(3,5Dibromobenzyloxymethyl)indan-1-yl]piperazine dihydrochloride] |
|  | 513 nM | CN(Cc1cc(Cl)cc(Cl)c1)CC1(N2CCNCC2)Cc2ccccc2C1 [Example 79, N-(3,5-Dichlorobenzyl)N-methyl-[2-(1-piperazinyl)indan-2-yl]-methanamine trihydrochloride] |
| 33.9 nM |  | CN(Cc1cc(F)cc(F)c1)C(=O)C1(N2CCNCC2)CCc2ccccc21 (racemic) [Example 68, (1RS)-N-(3,5Difluorobenzyl)-N-methyl-1-(1-piperazinyl)-1-indan-carboxamide dihydrochloride] |
| 151 nM |  | CN(Cc1cc(F)cc(C(F)(F)F)c1)C(=O)C1(N2CCNCC2)CCc2ccccc21 (racemic) [Example 69, (1RS)-N-[3-Fluoro-5(trifluoromethyl)benzyl]-N-methyl-1-(1-piperazinyl)-1-indancarboxamide dihydrochloride] |
|  | 398 nM | O=C(NCc1cc(C(F)(F)F)cc(C(F)(F)F)c1)C1(N2CCNCC2)Cc2ccccc2C1 [Example 5, N-[3,5-Bis(trifluoromethyl)benzyl]-2-(1-piperazinyl)-2-indan-carboxamide dihydrochloride] |
|  | 490 nM | CN(Cc1ccccc1)C(=O)C1(N2CCNCC2)CCc2ccccc21 (racemic) [Example 11, (1RS)-N-Benzyl-N-methyl-1-(1-piperazinyl)-1-indancarboxamide dihydrochloride] |
